Laboratory results: US20260242391A1 (priority 2023, published 2026)
pEC50, pIC50: −log10 of the molar value.

Tests used:
[1] = system: HL-60; assay: HL-60 differentiation potency; assay type: cell-based; details: Homo sapiens
[2] = in vitro; details: human

pEC50 [1]	pIC50 [2]	SMILES	pIC50 ([2]; HL-60 cells)
6.62	< 4.70	C[C@H]1[C@@H](OCC23[C@H]4[C@H]5[C@@H]2[C@H]2[C@@H]3[C@@H]4C52C(=O)O)O[C@@H]2O[C@@]3(C)CC[C@H]4[C@H](C)CC[C@@H]1[C@@]24OO3 (stereo partly drawn) [Compound 253, (2S,3S,5S,6S,7S, 8S)-4-((((3R,5aS,6R,8aS, 9R,10S,12R, 12aR)-3,6,9-trimethyldeca-hydro-12H-3,12-epoxy[1,2]dioxepino[4,3-i]isochromen-10-yl)oxy)methyl) cubane-1-carboxylic acid]	–
6.39	< 4.70	CO[C@H](C)[C@H](NC(=O)c1ccc(O[C@H]2O[C@@H]3O[C@@]4(C)CC[C@H]5[C@H](C)CC[C@@H]([C@H]2C)[C@@]35OO4)cc1)C(=O)O [Compound 248, O-methyl-N-(4-(((3R,5aS,6R,8aS, 9R,10S,12R, 12aR)-3,6,9-trimethyldeca-hydro-12H-3,12-epoxy[1,2]dioxepino[4,3-i]isochromen-10-yl)oxy)benzoyl)-L-threonine]	–
7.99	7.52	C[C@@H]1CC[C@H]2[C@@H](C)[C@](OCc3ccc(C(=O)O)cc3Cl)(C(F)(F)F)O[C@@H]3O[C@@]4(C)CC[C@@H]1[C@]32OO4 [Compound 196]	–
7.22	6.00	C[C@H]1[C@@H](OC[C@H]2CC[C@@H](C(=O)Nc3ccc(C(=O)O)cc3)CC2)O[C@@H]2O[C@@]3(C)CC[C@H]4[C@H](C)CC[C@@H]1[C@@]24OO3 [Compound 287, 4-((1R,4s)-4-((((3R,5aS,6R,8aS, 9R,10S,12R, 12aR)-3,6,9-trimethyldeca-hydro-12H-3,12-epoxy[1,2]dioxepino[4,3-i]isochromen-10-yl)oxy)methyl)cyclohexane-1-carboxamido) benzoic acid]	–
6.62	< 4.70	C[C@H]1[C@@H](O[C@H]2CC[C@@H](C(=O)N[C@H](C(=O)O)C3CCC3)CC2)O[C@@H]2O[C@@]3(C)CC[C@H]4[C@H](C)CC[C@@H]1[C@@]24OO3 [Compound 252, (S)-2-cyclobutyl-2-((1R,4R)-4-(((3R,5aS,6R,8aS, 9R,10S,12R, 12aR)-3,6,9-trimethyldeca-hydro-12H-3,12-epoxy[1,2]dioxepino[4,3-i]isochromen-10-yl)oxy)cyclohexane-1-carboxamido) acetic acid]	–
7.01	5.82	C[C@H]1[C@@H](Oc2ccc(C(=O)N[C@H](C(=O)O)C3CCC3)cc2)O[C@@H]2O[C@@]3(C)CC[C@H]4[C@H](C)CC[C@@H]1[C@@]24OO3 [Compound 251, (S)-2-cyclobutyl-2-(4-(((3R,5aS,6R,8aS, 9R,10S,12R, 12aR)-3,6,9-trimethyldeca-hydro-12H-3,12-epoxy[1,2]dioxepino[4,3-i]isochromen-10-yl)oxy)benzamido) acetic acid]	–
7.77	7.10	C[C@H]1[C@@H](Oc2ccc(C(=O)N[C@H](C(=O)O)C3CCCCC3)cc2)O[C@@H]2O[C@@]3(C)CC[C@H]4[C@H](C)CC[C@@H]1[C@@]24OO3 [Compound 231, (S)-2-cyclohexyl-2-(4-(((3R,5aS,6R,8aS, 9R,10S,12R, 12aR)-3,6,9-trimethyldeca-hydro-12H-3,12-epoxy[1,2]dioxepino[4,3-i]isochromen-10-yl)oxy)benzamido)acetic acid]	–
> 8.00	6.44	CC(C)[C@H](Oc1ccc(O[C@H]2O[C@@H]3O[C@@]4(C)CC[C@H]5[C@H](C)CC[C@@H]([C@H]2C)[C@@]35OO4)cc1)C(=O)O [Compound 261, (S)-3-methyl-2-(4-(((3R,5aS,6R,8aS, 9R,10S,12R, 12aR)-3,6,9-trimethyldeca-hydro-12H-3,12-epoxy[1,2]dioxepino[4,3-i]isochromen-10-yl)oxy)phenoxy) butanoic acid]	–
7.67	5.90	C[C@H]1[C@@H](OC[C@H]2CC[C@@H](C(=O)N[C@H](C(=O)O)C(C)(C)C)CC2)O[C@@H]2O[C@@]3(C)CC[C@H]4[C@H](C)CC[C@@H]1[C@@]24OO3 [Compound 242, (S)-3,3-dimethyl-2-((1R,4R)-4-((((3R,5aS,6R,8aS, 9R,10S,12R, 12aR)-3,6,9-trimethyldeca-hydro-12H-3,12-epoxy[1,2]dioxepino[4,3-i]isochromen-10-yl)oxy)methyl)cyclohexane-1-carboxamido) butanoic acid]	–
7.74	5.82	C[C@H]1[C@@H](OCc2ccc(C(=O)NCC3(C(=O)O)CCC3)cc2)O[C@@H]2O[C@@]3(C)CC[C@H]4[C@H](C)CC[C@@H]1[C@@]24OO3 [Compound 286, 1-((4-((((3R,5aS,6R,8aS, 9R,10S,12R, 12aR)-3,6,9-trimethyldeca-hydro-12H-3,12-epoxy[1,2]dioxepino[4,3-i]isochromen-10-yl)oxy)methyl)benzamido)methyl) cyclobutane-1-carboxylic acid]	–
6.84	5.13	C[C@H]1[C@@H](OC/C=C/[C@@H]2CCC[C@H](C(=O)O)C2)O[C@@H]2O[C@@]3(C)CC[C@H]4[C@H](C)CC[C@@H]1[C@@]24OO3 [Compound 269, (1S,3R)-3-((E)-3-(((3R,5aS,6R,8aS, 9R,10S,12R, 12aR)-3,6,9-trimethyldeca-hydro-12H-3,12-epoxy[1,2]dioxepino[4,3-i]isochromen-10-yl)oxy)prop-1-en-1-yl) cyclohexane-1-carboxylic acid]	–
7.95	7.52	C[C@H]1[C@@H](OCc2ccc(-c3nnc(CC(=O)O)o3)cc2)O[C@@H]2O[C@@]3(C)CC[C@H]4[C@H](C)CC[C@@H]1[C@@]24OO3 [Compound 304, 2-(5-(4-((((3R,5aS,6R,8aS, 9R,10S,12R, 12aR)-3,6,9-trimethyldeca-hydro-12H-3,12-epoxy[1,2]dioxepino[4,3-i]isochromen-10-yl)oxy)methyl)phenyl)-1,3,4-oxadiazol-2-yl)acetic acid]	–
7.54	6.15	C[C@H]1[C@@H](Oc2ccc(C(C)(C)C(=O)O)cc2F)O[C@@H]2O[C@@]3(C)CC[C@H]4[C@H](C)CC[C@@H]1[C@@]24OO3 [Compound 270, 2-(3-fluoro-4-(((3R,5aS,6R,8aS, 9R,10S,12R, 12aR)-3,6,9-trimethyldeca-hydro-12H-3,12-epoxy[1,2]dioxepino[4,3-i]isochromen-10-yl)oxy)phenyl)-2-methyl-propanoic acid]	–
5.30	< 4.70	C[C@H]1[C@@H](OCC(=O)N[C@H](C(=O)O)C(C)(C)C)O[C@@H]2O[C@@]3(C)CC[C@H]4[C@H](C)CC[C@@H]1[C@@]24OO3 [Compound 188, (S)-3,3-dimethyl-2-(2-(((3R,5aS,6R, 8aS,9R,10S,12R, 12aR)-3,6,9-trimethyldeca-hydro-12H-3,12-epoxy[1,2]dioxepino[4,3-i]isochromen-10-yl)oxy)acetamido) butanoic acid]	–
6.97	5.30	C[C@H]1[C@@H](Oc2ccc(CC(=O)N[C@@H]3C[C@H](C(=O)O)C[C@H]3O)cc2)O[C@@H]2O[C@@]3(C)CC[C@H]4[C@H](C)CC[C@@H]1[C@@]24OO3 [Compound 299, (1S,3R,4R)-3-hydroxy-4-(2-(4-(((3R,5aS,6R,8aS, 9R,10S,12R, 12aR)-3,6,9-trimethyldeca-hydro-12H-3,12-epoxy[1,2]dioxepino[4,3-i]isochromen-10-yl)oxy)phenyl)acetamido) cyclopentane-1-carboxylic acid]	–
7.48	6.15	C[C@H]1[C@@H](Oc2ccc(OC3CCC(C(=O)O)C3)cc2)O[C@@H]2O[C@@]3(C)CC[C@H]4[C@H](C)CC[C@@H]1[C@@]24OO3 (stereo partly drawn) [Compound 227, 3-(4-(((3R,5aS,6R,8aS, 9R,10S,12R, 12aR)-3,6,9-trimethyldeca-hydro-12H-3,12-epoxy[1,2]dioxepino[4,3-i]isochromen-10-yl)oxy)phenoxy) cyclopentane-1-carboxylic acid]	–
7.88	6.16	CC(C(=O)N[C@H]1CC[C@@H](C(=O)O)C1)c1ccc(O[C@H]2O[C@@H]3O[C@@]4(C)CC[C@H]5[C@H](C)CC[C@@H]([C@H]2C)[C@@]35OO4)c(F)c1 (stereo partly drawn) [Compound 306, (1R,3S)-3-(2-(3-fluoro-4-(((3R,5aS,6R,8aS, 9R,10S,12R, 12aR)-3,6,9-trimethyldeca-hydro-12H-3,12-epoxy[1,2]dioxepino[4,3-i]isochromen-10-yl)oxy)phenyl)propanamido) cyclopentane-1-carboxylic acid]	–
7.13	6.14	C[C@H]1[C@@H](Oc2ccc(O[C@H]3CC[C@@H](C(=O)O)CC3)cc2)O[C@@H]2O[C@@]3(C)CC[C@H]4[C@H](C)CC[C@@H]1[C@@]24OO3 [Compound 243, (1R,4s)-4-(4-(((3R,5aS,6R,8aS, 9R,10S,12R, 12aR)-3,6,9-trimethyldeca-hydro-12H-3,12-epoxy[1,2]dioxepino[4,3-i]isochromen-10-yl)oxy)phenoxy) cyclohexane-1-carboxylic acid]	–
7.77	4.71	C[C@H]1[C@@H](Oc2ccc(CC(=O)NC34CCC(C(=O)O)(C3)C4)cc2)O[C@@H]2O[C@@]3(C)CC[C@H]4[C@H](C)CC[C@@H]1[C@@]24OO3 [Compound 300, 4-(2-(4-(((3R,5aS,6R,8aS, 9R,10S,12R, 12aR)-3,6,9-trimethyldeca-hydro-12H-3,12-epoxy[1,2]dioxepino[4,3-i]isochromen-10-yl)oxy)phenyl)acetamido) bicyclo[2.1.1] hexane-1-carboxylic acid]	–

SMILES	pEC50 [1]	pIC50 [2]	pIC50 ([2]; HL-60 cells)
C[C@H]1[C@@H](O[C@H]2CC[C@@H](C(=O)N[C@@H](CC(F)(F)F)C(=O)O)CC2)O[C@@H]2O[C@@]3(C)CC[C@H]4[C@H](C)CC[C@@H]1[C@@]24OO3 [Compound 237, (S)-4,4,4-trifluoro-2-((1R,4R)-4-(((3R,5aS,6R,8aS, 9R,10S,12R, 12aR)-3,6,9-trimethyldeca-hydro-12H-3,12-epoxy[1,2]dioxepino[4,3-i]isochromen-10-yl)oxy)cyclo-hexane-1-carboxamido) butanoic acid]	5.14	–	< 4.70
C[C@H]1[C@@H](Oc2ccc(CC(=O)N[C@H]3C[C@@H](C(=O)O)C3)cc2)O[C@@H]2O[C@@]3(C)CC[C@H]4[C@H](C)CC[C@@H]1[C@@]24OO3 [Compound 292, (1R,3s)-3-(2-(4-(((3R,5aS,6R,8aS, 9R,10S,12R, 12aR)-3,6,9-trimethyldeca-hydro-12H-3,12-epoxy[1,2]dioxepino[4,3-i]isochromen-10-yl)oxy)phenyl)acetamido) cyclobutane-1-carboxylic acid]	7.37	–	< 4.70
